This data set can be described thus: Stability test (accelerated experiment, sealed PE/aluminum foil bags, 40±2° C., humidity 75±5%). The settings on record: for Purity by HPLC / Appearance / XRPD: 40±2° C., humidity 75±5%.

Description: X-ray powder diffractometer model: Rigaku D/max-2200 Cu target; operation condition: scanning speed, 4°/min, scanning step width, 0.01°.
High performance liquid chromatograph, Agilent1100; Chromatographic column: C18, 4.6 mm×250 mm; mobile phase, acetonitrile:0.1% phosphoric acid aqueous solution=65:35 (v:v); Detection wavelength: 240 nm; flow rate, 1.0 ml/min; Column temperature: 25° C.
The bags were electrothermally sealed, and then placed into aluminum foil bags which were also electrothermally sealed.

For “tenvermectin B [crystal form I of tenvermectin B]”, the “Purity by HPLC” value (first month) worked out at 99.0; the “Purity by HPLC” value (initial data) is given as 99.1; the “Purity by HPLC” value (second month) was determined as 99.1; the “Purity by HPLC” value (sixth month) was 98.9; the “Purity by HPLC” value (third month) was 98.9. Besides, the Appearance result is given as “White” (first month, cell wraps: White / crystalline / powder); “White” (initial data, cell wraps over 3 lines: White / crystalline / powder); “White” (second month, cell wraps: White / crystalline / powder); “White” (sixth month, cell wraps: White / crystalline / powder); “White” (third month, cell wraps: White / crystalline / powder). Also, the XRPD result by setting is: (first month, cell wraps: crystal / form I) “crystal”; (initial data, cell wraps over 2 lines: crystal / form I) “crystal”; (second month, cell wraps: crystal / form I) “crystal”; (sixth month, cell wraps: crystal / form I) “crystal”; (third month, cell wraps: crystal / form I) “crystal”. Further, the “crystal transformation phenomenon in the stability experiment” value (stability experiment) is “does not occur”.

The record behind these values is patent US11912717B2 (Shenzhen Tenver Biopharm Co., Ltd., priority 2018, dated 2024).
